From US12049450B2, “Pyridyloxy-carboxylate derivative and preparation method therefor, herbicidal composition, and use” (Qingdao Kingagroot Chemical Compound Co., Ltd., priority 2018, dated 2024)

How the values were obtained:
Experiment in all cases: Post-emergence test experiment (greenhouse pot, spray at 2-3 leaf stage)
Format in all cases: in vivo
Conditions in all cases: 1000 g/ha; post-emergence spray at 2-3 leaf stage; assessed after 3 weeks; fresh weight inhibition rate
[1] = tested on: Galium spurium
How it was run: (§1)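 Weed seeds sown in soil-filled pots in greenhouse, sprayed at 2-3 leaf stage (2 weeks after sowing) with compound in acetone/tween-80 plus methyl oleate emulsible concentrate (1.5 L/ha) diluted in water. Fresh-weight growth inhibition scored after 3 weeks on 0-5 scale (5: >85%, 0: <5%).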

[2] = tested on: Monochoria vaginalis
How it was run: as §1

[3] = tested on: Abutilon theophrasti
How it was run: as §1

[4] = tested on: Echinochloa crusgalli
How it was run: as §1

[5] = tested on: Digitaria sanguinalis
How it was run: as §1

Structure (SMILES)	Activity level (growth inhibition rate) Galium spurium [1]	Activity level (growth inhibition rate) Monochoria Vaginalis [2]	Activity level (growth inhibition rate) Abutilon theophrasti [3]	Activity level (growth inhibition rate) Echinochloa crusgalli [4]	Activity level (growth inhibition rate) Digitaria sanguinalis [5]
CC(Oc1ncc(Cl)c(N)c1Cl)C(=O)SCc1ccccc1 (stereo not shown) [Compound 23]	5 (Level 5: the growth inhibition rate is greater than 85%)	5 (Level 5: the growth inhibition rate is greater than 85%)	5 (Level 5: the growth inhibition rate is greater than 85%)	5 (Level 5: the growth inhibition rate is greater than 85%)	5 (Level 5: the growth inhibition rate is greater than 85%)
CC(Oc1nc(Cl)c(Cl)c(N)c1Cl)C(=O)SCc1ccccc1 (stereo not shown) [Compound 24]	5 (Level 5: the growth inhibition rate is greater than 85%)	5 (Level 5: the growth inhibition rate is greater than 85%)	5 (Level 5: the growth inhibition rate is greater than 85%)	5 (Level 5: the growth inhibition rate is greater than 85%)	5 (Level 5: the growth inhibition rate is greater than 85%)
CC(Oc1nc(F)c(Cl)c(N)c1Cl)C(=O)OCC1CCCO1 (stereo not shown) [Compound 68]	5 (Level 5: the growth inhibition rate is greater than 85%)	5 (Level 5: the growth inhibition rate is greater than 85%)	5 (Level 5: the growth inhibition rate is greater than 85%)	5 (Level 5: the growth inhibition rate is greater than 85%)	5 (Level 5: the growth inhibition rate is greater than 85%)
Cc1ccccc1COC(=O)C(C)Oc1nc(F)c(Cl)c(N)c1Cl (stereo not shown) [Compound 69]	5 (Level 5: the growth inhibition rate is greater than 85%)	5 (Level 5: the growth inhibition rate is greater than 85%)	5 (Level 5: the growth inhibition rate is greater than 85%)	5 (Level 5: the growth inhibition rate is greater than 85%)	5 (Level 5: the growth inhibition rate is greater than 85%)
CC(Oc1nc(F)c(Cl)c(N)c1Cl)C(=O)SCc1cccc(C(C)C)c1 (stereo not shown) [Compound 71]	5 (Level 5: the growth inhibition rate is greater than 85%)	5 (Level 5: the growth inhibition rate is greater than 85%)	5 (Level 5: the growth inhibition rate is greater than 85%)	5 (Level 5: the growth inhibition rate is greater than 85%)	5 (Level 5: the growth inhibition rate is greater than 85%)
CC(Oc1nc(F)c(Cl)c(N)c1Cl)C(=O)OCc1ccc(C(C)C)cc1 (stereo not shown) [Compound 72]	5 (Level 5: the growth inhibition rate is greater than 85%)	5 (Level 5: the growth inhibition rate is greater than 85%)	5 (Level 5: the growth inhibition rate is greater than 85%)	5 (Level 5: the growth inhibition rate is greater than 85%)	5 (Level 5: the growth inhibition rate is greater than 85%)
C/C=C/c1ccc(CSC(=O)C(C)Oc2nc(F)c(Cl)c(N)c2Cl)cc1 (stereo not shown) [Compound 73]	5 (Level 5: the growth inhibition rate is greater than 85%)	5 (Level 5: the growth inhibition rate is greater than 85%)	5 (Level 5: the growth inhibition rate is greater than 85%)	5 (Level 5: the growth inhibition rate is greater than 85%)	5 (Level 5: the growth inhibition rate is greater than 85%)
CC(Oc1nc(F)c(Cl)c(N)c1Cl)C(=O)OCc1ccc(C2CC2)cc1 (stereo not shown) [Compound 74]	5 (Level 5: the growth inhibition rate is greater than 85%)	5 (Level 5: the growth inhibition rate is greater than 85%)	5 (Level 5: the growth inhibition rate is greater than 85%)	5 (Level 5: the growth inhibition rate is greater than 85%)	5 (Level 5: the growth inhibition rate is greater than 85%)
CC(Oc1nc(F)c(Cl)c(N)c1Cl)C(=O)OC(C)c1ccc(Br)cc1 (stereo not shown) [Compound 77]	5 (Level 5: the growth inhibition rate is greater than 85%)	5 (Level 5: the growth inhibition rate is greater than 85%)	5 (Level 5: the growth inhibition rate is greater than 85%)	5 (Level 5: the growth inhibition rate is greater than 85%)	5 (Level 5: the growth inhibition rate is greater than 85%)
CC(Oc1nc(F)c(Cl)c(N)c1Cl)C(=O)OCc1cccc(I)c1 (stereo not shown) [Compound 78]	5 (Level 5: the growth inhibition rate is greater than 85%)	5 (Level 5: the growth inhibition rate is greater than 85%)	5 (Level 5: the growth inhibition rate is greater than 85%)	5 (Level 5: the growth inhibition rate is greater than 85%)	5 (Level 5: the growth inhibition rate is greater than 85%)
CC(Oc1nc(F)c(Cl)c(N)c1Cl)C(=O)OCc1cc(F)ccc1F (stereo not shown) [Compound 79]	5 (Level 5: the growth inhibition rate is greater than 85%)	5 (Level 5: the growth inhibition rate is greater than 85%)	5 (Level 5: the growth inhibition rate is greater than 85%)	5 (Level 5: the growth inhibition rate is greater than 85%)	5 (Level 5: the growth inhibition rate is greater than 85%)
CC(Oc1nc(F)c(Cl)c(N)c1Cl)C(=O)OCc1cccc(Cl)c1Cl (stereo not shown) [Compound 80]	5 (Level 5: the growth inhibition rate is greater than 85%)	5 (Level 5: the growth inhibition rate is greater than 85%)	5 (Level 5: the growth inhibition rate is greater than 85%)	5 (Level 5: the growth inhibition rate is greater than 85%)	5 (Level 5: the growth inhibition rate is greater than 85%)
CC(Oc1nc(F)c(Cl)c(N)c1Cl)C(=O)SCc1cc(F)cc(Cl)c1 (stereo not shown) [Compound 81]	5 (Level 5: the growth inhibition rate is greater than 85%)	5 (Level 5: the growth inhibition rate is greater than 85%)	5 (Level 5: the growth inhibition rate is greater than 85%)	5 (Level 5: the growth inhibition rate is greater than 85%)	5 (Level 5: the growth inhibition rate is greater than 85%)
COc1cccc(F)c1CSC(=O)C(C)Oc1nc(F)c(Cl)c(N)c1Cl (stereo not shown) [Compound 84]	5 (Level 5: the growth inhibition rate is greater than 85%)	5 (Level 5: the growth inhibition rate is greater than 85%)	5 (Level 5: the growth inhibition rate is greater than 85%)	5 (Level 5: the growth inhibition rate is greater than 85%)	5 (Level 5: the growth inhibition rate is greater than 85%)
CC(Oc1nc(F)c(Cl)c(N)c1Cl)C(=O)OCc1cc([N+](=O)[O-])ccc1F (stereo not shown) [Compound 86]	5 (Level 5: the growth inhibition rate is greater than 85%)	5 (Level 5: the growth inhibition rate is greater than 85%)	5 (Level 5: the growth inhibition rate is greater than 85%)	5 (Level 5: the growth inhibition rate is greater than 85%)	5 (Level 5: the growth inhibition rate is greater than 85%)
CC(Oc1nc(F)c(Cl)c(N)c1Cl)C(=O)SCc1cccc(C(=O)O)c1 (stereo not shown) [Compound 87]	5 (Level 5: the growth inhibition rate is greater than 85%)	5 (Level 5: the growth inhibition rate is greater than 85%)	5 (Level 5: the growth inhibition rate is greater than 85%)	5 (Level 5: the growth inhibition rate is greater than 85%)	5 (Level 5: the growth inhibition rate is greater than 85%)
CC(Oc1nc(F)c(Cl)c(N)c1Cl)C(=O)OCc1cccc(O)c1 (stereo not shown) [Compound 89]	5 (Level 5: the growth inhibition rate is greater than 85%)	5 (Level 5: the growth inhibition rate is greater than 85%)	5 (Level 5: the growth inhibition rate is greater than 85%)	5 (Level 5: the growth inhibition rate is greater than 85%)	5 (Level 5: the growth inhibition rate is greater than 85%)
